Measurements as given in ChEMBL document CHEMBL1201862, “PubChem BioAssay data set” (2004).
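Method: 48-hour compound exposure of cells in 96-well plates, five concentrations, linear interpolation of endpoints. GI50 = concentration required for 50% inhibition of growth.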 Calls of active or inactive are those of the source. Cut-off read from the data, not from the text of the source: active = GI50 up to about 1.1 µM and inactive = higher.

How the values were obtained:
Assay in all cases: DTP human tumour cell line panel, 48 h
A498 = test system: A498
NCI-H522 = test system: NCI-H522
OVCAR-3 = test system: OVCAR-3
K562 = test system: K562
ACHN = test system: ACHN
SF-268 = test system: SF-268
OVCAR-5 = test system: OVCAR-5
786-0 = test system: 786-0
SK-OV-3 = test system: SK-OV-3
OVCAR-4 = test system: OVCAR-4
HT-29 = test system: HT-29
IGROV-1 = test system: IGROV-1
SW-620 = test system: SW-620
NCI-H226 = test system: NCI-H226
HOP-92 = test system: HOP-92
SK-MEL-5 = test system: SK-MEL-5
OVCAR-8 = test system: OVCAR-8

Row | SMILES | GI50 (A498) | GI50 (NCI-H522) | GI50 (OVCAR-3) | GI50 (K562) | GI50 (ACHN) | GI50 (SF-268) | GI50 (OVCAR-5) | GI50 (786-0) | GI50 (SK-OV-3) | GI50 (OVCAR-4) | GI50 (HT-29) | GI50 (IGROV-1) | GI50 (SW-620) | GI50 (NCI-H226) | GI50 (HOP-92) | GI50 (SK-MEL-5) | GI50 (OVCAR-8)
1 | COc1ccc2c(c1)C(O)(C(F)(F)F)c1cc(C(=O)C(F)(F)F)c3ccccc3c1N2 (stereo unspecified) | 14.3 µM (inactive) | 7.74 µM (inactive) | 14.9 µM (inactive) | 3.7 µM (inactive) | 5.47 µM (inactive) | 10.2 µM (inactive) | 14.4 µM (inactive) | 13.5 µM (inactive) | 17.8 µM (inactive) | 10.5 µM (inactive) | 7.73 µM (inactive) | 13.8 µM (inactive) | 13.9 µM (inactive) | 12.8 µM (inactive) | 16 µM (inactive) | 13.7 µM (inactive) | 
2 | COC(=O)C(=O)C(C(=O)C=C(C)C)C(=O)C(=O)Nc1ccc(C)cc1C (stereo unspecified) | > 100 µM (inactive) | > 100 µM (inactive) | > 100 µM (inactive) | > 100 µM (inactive) | > 100 µM (inactive) | > 100 µM (inactive) | > 100 µM (inactive) | > 100 µM (inactive) | > 100 µM (inactive) | > 100 µM (inactive) | > 100 µM (inactive) | > 100 µM (inactive) | > 100 µM (inactive) | > 100 µM (inactive) |  | > 100 µM (inactive) | > 100 µM (inactive)
3 | Cc1cc(C)nc(NS(=O)(=O)c2ccc(NC(=O)c3ccc(Cl)c4c(Nc5ccc(S(=O)(=O)Nc6nc(C)cc(C)n6)cc5)c5ccccc5nc34)cc2)n1 | 23.8 µM (inactive) |  | 29.2 µM (inactive) | 9.95 µM (inactive) | 26.9 µM (inactive) | 4.41 µM (inactive) | 15.7 µM (inactive) | 5.18 µM (inactive) | 13.7 µM (inactive) | 11 µM (inactive) | 31.7 µM (inactive) | 3.31 µM (inactive) | 18.2 µM (inactive) |  | 2.08 µM (inactive) | 17.7 µM (inactive) | 17.4 µM (inactive)
4 | COc1ccc(C(=O)CC2=Nc3nnc(CCCCCCCc4nnc5n4C(=O)C(CC(=O)c4ccc(OC)cc4)=N5)n3C2=O)cc1 | > 100 µM (inactive) | > 100 µM (inactive) | > 100 µM (inactive) | > 100 µM (inactive) | > 100 µM (inactive) | > 100 µM (inactive) | > 100 µM (inactive) | > 100 µM (inactive) | > 100 µM (inactive) |  | > 100 µM (inactive) | > 100 µM (inactive) | > 100 µM (inactive) | > 100 µM (inactive) | > 100 µM (inactive) | > 100 µM (inactive) | > 100 µM (inactive)
5 | CC/C(=N\NS(=O)(=O)c1ccccc1)c1ccccc1 | > 100 µM (inactive) |  | > 100 µM (inactive) | > 100 µM (inactive) | > 100 µM (inactive) | > 100 µM (inactive) | > 100 µM (inactive) | > 100 µM (inactive) | > 100 µM (inactive) | > 100 µM (inactive) | > 100 µM (inactive) | > 100 µM (inactive) | > 100 µM (inactive) | > 100 µM (inactive) | > 100 µM (inactive) | > 100 µM (inactive) | > 100 µM (inactive)
6 | COc1ccc2[nH]c3c(cnn4cnnc34)c2c1 |  | > 100 µM (inactive) | > 100 µM (inactive) | > 100 µM (inactive) | > 100 µM (inactive) | > 100 µM (inactive) | > 100 µM (inactive) | > 100 µM (inactive) | > 100 µM (inactive) | > 100 µM (inactive) | > 100 µM (inactive) | > 100 µM (inactive) | > 100 µM (inactive) |  | > 100 µM (inactive) | 0.262 µM (active) | > 100 µM (inactive)
7 | O=C1CSc2ccncc2N1 | > 100 µM (inactive) |  | > 100 µM (inactive) | > 100 µM (inactive) | > 100 µM (inactive) | > 100 µM (inactive) | > 100 µM (inactive) | > 100 µM (inactive) |  | > 100 µM (inactive) | > 100 µM (inactive) | > 100 µM (inactive) | > 100 µM (inactive) | > 100 µM (inactive) |  | > 100 µM (inactive) | > 100 µM (inactive)
8 | COC1CC(OC)C(O)C(CO)O1 (stereo unspecified) |  | > 100 µM (inactive) | > 100 µM (inactive) | > 100 µM (inactive) | > 100 µM (inactive) |  | > 100 µM (inactive) | > 100 µM (inactive) | > 100 µM (inactive) | > 100 µM (inactive) | > 100 µM (inactive) | > 100 µM (inactive) | > 100 µM (inactive) |  |  | > 100 µM (inactive) | > 100 µM (inactive)
9 | COc1nc(NC2OC(COC(C)=O)C(OC(C)=O)C(OC(C)=O)C2OC(C)=O)c2c(OC(C)=O)c(C)c(=O)oc2n1 (stereo unspecified) | 1.75 µM (inactive) |  | > 100 µM (inactive) | > 100 µM (inactive) | 1.7 µM (inactive) |  | > 100 µM (inactive) | > 100 µM (inactive) | > 100 µM (inactive) | > 100 µM (inactive) | > 100 µM (inactive) | > 100 µM (inactive) | > 100 µM (inactive) | > 100 µM (inactive) | > 100 µM (inactive) | > 100 µM (inactive) | > 100 µM (inactive)
